Experimental findings from ChEMBL document CHEMBL4011582, “Human drug-induced liver injury severity is highly associated with dual inhibition of liver mitochondrial function and bile salt export pump” (Hepatology, 2014) are described below.

The nature of one series: clinical. Conditions: human.
For the next series, the system named is Liver. The class given is ADME, mitochondria, Rattus norvegicus, Sprague-Dawley.
Series [1] deals with T1, Bile salt export pump (Homo sapiens, UniProt O95342). Nature of the series: Inhibition of recombinant human BSEP expressed in baculovirus infected sf21 cell plasma membrane vesicles assessed as reduction in ATP-dependent [3H]-taurocholate uptake in to vesicles after 5 mins by microbeta filtration method. The format is ADME.
For series [2], the target named is T1, Bile salt export pump. The format is ADME. Conditions: read-out: IC50.
Series [3] in a line: Induction of mitochondrial dysfunction in liver mitochondria (unknown origin) assessed as inhibition of mitochondrial respiration.
In series [4] the target is T1, Bile salt export pump. The series can be described thus: Inhibition of BSEP (unknown origin). The class given is ADME.
The target of series [5] is T1, Bile salt export pump. The series can be described thus: Inhibition of recombinant human BSEP expressed in baculovirus infected sf9 cell plasma membrane vesicles assessed as reduction in ATP-dependent [3H]-taurocholate uptake in to vesicles preincubated for 10 mins followed by ATP addition measured after 10 to 15 mins by TopCount method. The class given is ADME.

T1 sequence (O95342 whole entry): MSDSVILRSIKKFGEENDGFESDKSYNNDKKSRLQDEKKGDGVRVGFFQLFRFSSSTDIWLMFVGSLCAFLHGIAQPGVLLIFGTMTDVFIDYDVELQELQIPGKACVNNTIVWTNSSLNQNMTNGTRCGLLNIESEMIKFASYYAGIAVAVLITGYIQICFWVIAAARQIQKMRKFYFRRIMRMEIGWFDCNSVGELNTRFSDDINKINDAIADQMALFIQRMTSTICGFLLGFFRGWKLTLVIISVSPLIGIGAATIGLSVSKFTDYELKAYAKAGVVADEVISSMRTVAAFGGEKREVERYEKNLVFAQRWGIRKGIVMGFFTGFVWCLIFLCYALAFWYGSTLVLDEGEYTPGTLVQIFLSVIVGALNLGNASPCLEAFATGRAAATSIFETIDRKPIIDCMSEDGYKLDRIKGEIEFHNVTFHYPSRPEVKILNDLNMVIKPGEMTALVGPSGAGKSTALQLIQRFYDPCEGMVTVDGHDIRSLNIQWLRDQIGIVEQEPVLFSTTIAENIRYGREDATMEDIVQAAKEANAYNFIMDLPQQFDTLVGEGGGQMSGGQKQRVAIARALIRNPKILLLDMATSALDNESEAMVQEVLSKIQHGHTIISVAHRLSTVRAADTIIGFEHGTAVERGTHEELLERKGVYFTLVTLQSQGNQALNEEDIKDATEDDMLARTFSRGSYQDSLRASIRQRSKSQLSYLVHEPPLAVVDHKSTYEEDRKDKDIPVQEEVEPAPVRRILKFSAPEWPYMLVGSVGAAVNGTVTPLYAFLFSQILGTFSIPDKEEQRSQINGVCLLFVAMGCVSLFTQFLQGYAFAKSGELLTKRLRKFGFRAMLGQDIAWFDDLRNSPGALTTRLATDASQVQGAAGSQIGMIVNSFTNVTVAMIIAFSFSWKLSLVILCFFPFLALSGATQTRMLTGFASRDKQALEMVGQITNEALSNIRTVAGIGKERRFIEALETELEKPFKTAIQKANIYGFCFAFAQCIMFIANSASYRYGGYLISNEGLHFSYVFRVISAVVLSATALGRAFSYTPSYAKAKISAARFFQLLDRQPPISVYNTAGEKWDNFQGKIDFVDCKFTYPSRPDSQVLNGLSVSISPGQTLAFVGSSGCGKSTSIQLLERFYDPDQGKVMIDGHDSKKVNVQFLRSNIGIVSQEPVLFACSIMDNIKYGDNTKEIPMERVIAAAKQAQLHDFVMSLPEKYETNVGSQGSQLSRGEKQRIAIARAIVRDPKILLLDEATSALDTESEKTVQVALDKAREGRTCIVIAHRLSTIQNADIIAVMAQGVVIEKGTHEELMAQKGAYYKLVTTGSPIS

With `C[N+](C)(C)CC(=O)O` [BETAINE], in the series “clinical”, the highest concentration (Cmax) came to 599000 nM. Besides, the results for the IC50 entry with Liver and on Bile salt export pump [1] were “Non-Toxic” and above 1000 µM, respectively.

The compound `O=C1CC2(CCCC2)CC(=O)N1CCCCN1CCN(c2ncccn2)CC1` [BUSPIRONE] gave a Cmax in the series “clinical” of 5 nM. Also, the IC50 entry in the series with Liver is “Non-Toxic”; at Bile salt export pump [2], above 100 µM.

For `C[C@H](CCC(=O)O)[C@H]1CC[C@H]2[C@@H]3[C@H](O)C[C@@H]4C[C@H](O)CC[C@]4(C)[C@H]3CC[C@]12C` [CHENODIOL], the highest level in the series “clinical” (Cmax) was 8000 nM. Also, the IC50 entry with Liver is “Non-Toxic”; at Bile salt export pump [2] it was 10.6 µM.

Turning to `COCC(=O)NC/C=C/c1ccc2ncnc(Nc3ccc(Oc4ccc(C)nc4)c(C)c3)c2c1` [CP-724714], the IC50 in series [3] is given as 45 nmol/mg.

On to `CC(CCc1ccc(O)cc1)NCCc1ccc(O)c(O)c1` (stereo unspecified) [DOBUTAMINE], for which the peak level in the series “clinical” (Cmax) was 1340 nM. In addition, the IC50 result was “Non-Toxic” in the series with Liver and above 100 µM on Bile salt export pump [2].

With `CCOC(=O)[C@@]1(CCCCCCOc2ccc(Cl)cc2)CO1` [ETOMOXIR], at Bile salt export pump [4], the IC50 is 11.8 µM.

`CCOC(=O)c1ncn2c1CN(C)C(=O)c1cc(F)ccc1-2` [FLUMAZENIL] gave a peak concentration (Cmax) in the series “clinical” of 1120 nM. The IC50 entry in the series with Liver is “Non-Toxic”; on Bile salt export pump [2], above 100 µM.

As for `CCC1=C(C)CN(C(=O)NCCc2ccc(S(=O)(=O)NC(=O)N[C@H]3CC[C@H](C)CC3)cc2)C1=O` [GLIMEPIRIDE], in “clinical”, the Cmax was 1120 nM. Besides, the IC50 entry was “Non-Toxic” in the series with Liver and 34 µM on Bile salt export pump [2].

For `CN(C)C(=O)C(CCN1CCC(O)(c2ccc(Cl)cc2)CC1)(c1ccccc1)c1ccccc1` [LOPERAMIDE], the concentration in the series “clinical” peaked (Cmax) at 8 nM. For the same compound, the IC50 result was “Non-Toxic” in the series with Liver and 67 µM at Bile salt export pump [2].

For `C[C@@H]1C[C@H]2[C@@H]3CCC4=CC(=O)C=C[C@]4(C)[C@@]3(Cl)[C@@H](O)C[C@]2(C)[C@@]1(O)C(=O)CCl` [MOMETASONE], in the series “clinical”, the Cmax worked out at 0.3 nM. The IC50 entry was “Non-Toxic” with Liver and 9.3 µM on Bile salt export pump [2].

In turn, `CO[C@H]1/C=C/O[C@@]2(C)Oc3c(C)c(O)c4c(O)c(c(/C=N/N5CCN(C)CC5)c(O)c4c3C2=O)NC(=O)/C(C)=C\C=C\[C@H](C)[C@H](O)[C@@H](C)[C@@H](O)[C@@H](C)[C@H](OC(C)=O)[C@@H]1C` [RIFAMPIN] returned a Cmax in the series “clinical” of 8500 nM. The IC50 entry with Liver is “Non-Toxic”; on Bile salt export pump [2], 18.7 µM.

In “clinical”, `CO[C@H]1/C=C/O[C@@]2(C)Oc3c(C)c(O)c4c(O)c(cc(O)c4c3C2=O)NC(=O)/C(C)=C\C=C\[C@H](C)[C@H](O)[C@@H](C)[C@@H](O)[C@@H](C)[C@H](OC(C)=O)[C@@H]1C` [RIFAMYCIN] yielded a Cmax of 2780 nM. The IC50 entry with Liver was “Non-Toxic”; at Bile salt export pump [2], 9.5 µM.

In the case of `CN(CCOc1ccc(CC2SC(=O)NC2=O)cc1)c1ccccn1` (stereo unspecified) [ROSIGLITAZONE], on Bile salt export pump [5], the IC50 worked out at 3.75 µM. The same compound came in with a Cmax in “clinical” of 1040 nM.

Consider `CN[C@@H]1[C@H](O[C@H]2[C@H](O[C@H]3[C@H](O)[C@@H](O)[C@H](N=C(N)N)[C@@H](O)[C@@H]3N=C(N)N)O[C@@H](C)[C@]2(O)C=O)O[C@@H](CO)[C@H](O)[C@H]1O` [STREPTOMYCIN], for which, in the series “clinical”, the Cmax is 64500 nM. The results for the IC50 result in the series with Liver and at Bile salt export pump [1] were “Non-Toxic” and above 1000 µM, respectively.

In “clinical”, `O=C1C(CC[S+]([O-])c2ccccc2)C(=O)N(c2ccccc2)N1c1ccccc1` (stereo unspecified) [SULFINPYRAZONE] showed a Cmax of 44200 nM. In addition, the values for the IC50 entry with Liver and on Bile salt export pump [2] were “Non-Toxic” and 11 µM, respectively.

Compound `CC[C@H]1OC(=O)[C@H](C)C(=O)[C@H](C)[C@@H](O[C@@H]2O[C@H](C)C[C@H](N(C)C)[C@H]2O)[C@](C)(OC)C[C@@H](C)C(=O)[C@H](C)[C@H]2N(CCCCn3cnc(-c4cccnc4)c3)C(=O)O[C@]12C` [TELITHROMYCIN] displayed a Cmax in the series “clinical” of 2770 nM. Moreover, the IC50 entry with Liver was “Non-Toxic”; at Bile salt export pump [2] it was 30 µM.

In the series “clinical”, `O=c1n(CCCN2CCN(c3cccc(Cl)c3)CC2)nc2ccccn12` [TRAZODONE] displayed a peak concentration (Cmax) of 5060 nM. The IC50 result in the series with Liver is “Non-Toxic”; at Bile salt export pump [2] it was 90 µM.
